Consider 12 compounds from PubChem BioAssay AID200 (DTP/NCI, 2004).

For this test, the system named is B6C3F1 mice, B16 melanoma ip, median survival T/C. Nature of the test: NCI In Vivo Anticancer Drug Screen. Data for tumor model B16 Melanoma (intraperitoneal) in B6C3F1 mice. To be noted: endpoint: median survival time, higher = longer survival. The protocol:
The antitumor activity of compounds was measured in mice bearing transplantable tumors. Survival or tumor size were measured and the results are expressed as the measurement made in the treated group (T) divided by the measurement made in the vehicle treated control group (C). The tumor model used in this assay is B16 Melanoma (intraperitoneal) in B6C3F1 mice

Setting [1] is: dose: 25.0 mg/kg/injection, schedule: Q01DX009 (ip), vehicle: distilled water + Tween-80.

Values joined by “and” are separate entries in the source; they are usually repeats but may differ in a detail not shown here. Equal values may be shown once. Inconclusive results and toxic doses are left out.

As to `CO[C@H]1Nc2c(ccc(C)c2O)C(=O)N2C=C(/C=C/C(N)=O)C[C@@H]12`, the T/C reads like this: (dose: 0.03 mg/kg/injection, schedule: Q01DX009 (ip), vehicle: saline with Tween-80) 111 % of control; (dose: 0.05 mg/kg/injection, schedule: Q04DX003 (ip), vehicle: DMSO) 92 % of control; (dose: 0.06 mg/kg/injection, schedule: Q01DX009 (ip), vehicle: saline with Tween-80) 104 % of control; (dose: 0.1 mg/kg/injection, schedule: Q04DX003 (ip), vehicle: DMSO) 105 % of control; (dose: 0.12 mg/kg/injection, schedule: Q01DX009 (ip), vehicle: saline with Tween-80) 102 % of control; (dose: 0.2 mg/kg/injection, schedule: Q04DX003 (ip), vehicle: DMSO) 109 % of control. Further, the T/C was 122 % of control (dose: 0.25 mg/kg/injection, schedule: Q01DX009 (ip), vehicle: saline with Tween-80) and 104 % of control (dose: 0.4 mg/kg/injection, schedule: Q04DX003 (ip), vehicle: DMSO).

Regarding `Cc1c(O)ccc(=O)n1O`, the T/C was 101 % of control (dose: 16.0 mg/kg/injection, schedule: Q01DX009 (ip), vehicle: saline with Tween-80); 98 % of control (dose: 32.0 mg/kg/injection, schedule: Q01DX009 (ip), vehicle: saline with Tween-80); 101 % of control (dose: 64.0 mg/kg/injection, schedule: Q01DX009 (ip), vehicle: saline with Tween-80); 104 % of control (dose: 128.0 mg/kg/injection, schedule: Q01DX009 (ip), vehicle: saline with Tween-80).

Regarding `CCC1OCC(C(Cl)CCl)O1` (stereo unspecified), the T/C was 105 % of control (dose: 25.0 mg/kg/injection, schedule: Q01DX009 (ip), vehicle: Klucel (hydroxypropylcellulose) (HPC)); 96 % of control (dose: 50.0 mg/kg/injection, schedule: Q01DX009 (ip), vehicle: Klucel (hydroxypropylcellulose) (HPC)); 91 % of control (dose: 100.0 mg/kg/injection, schedule: Q01DX009 (ip), vehicle: Klucel (hydroxypropylcellulose) (HPC)); 98 % of control (dose: 200.0 mg/kg/injection, schedule: Q01DX009 (ip), vehicle: Klucel (hydroxypropylcellulose) (HPC)).

On to `O=C(O)CC(NC(=O)CP(=O)(O)O)C(=O)O` (stereo unspecified), for which the T/C (dose: 25.0 mg/kg/injection, schedule: Q01DX009 (ip), vehicle: saline) was 160 % of control; the T/C (dose: 37.5 mg/kg/injection, schedule: Q01DX005 (ip), vehicle: saline) was 121 % of control; the T/C (dose: 37.5 mg/kg/injection, schedule: Q01DX005 (iv), vehicle: saline) is 119 % of control; the T/C (dose: 50.0 mg/kg/injection, schedule: Q01DX009 (ip), vehicle: saline) was 172 % of control; the T/C (dose: 75.0 mg/kg/injection, schedule: Q01DX001 (ip), vehicle: saline) was 120 % of control; the T/C (dose: 75.0 mg/kg/injection, schedule: Q01DX001 (iv), vehicle: saline) was 110 % of control. For the same compound, the T/C reads like this: (dose: 75.0 mg/kg/injection, schedule: Q01DX005 (iv), vehicle: saline) 123 % of control; (dose: 100.0 mg/kg/injection, schedule: Q01DX009 (ip), vehicle: saline) 202 % of control; (dose: 150.0 mg/kg/injection, schedule: Q01DX001 (iv), vehicle: saline) 116 % of control; (dose: 150.0 mg/kg/injection, schedule: Q01DX005 (ip), vehicle: saline) 178 % of control; (dose: 150.0 mg/kg/injection, schedule: Q01DX005 (iv), vehicle: saline) 114 % of control; (dose: 200.0 mg/kg/injection, schedule: Q01DX009 (ip), vehicle: saline) 226 % of control. Also, the T/C runs as follows: (dose: 300.0 mg/kg/injection, schedule: Q01DX001 (iv), vehicle: saline) 115 % of control; (dose: 300.0 mg/kg/injection, schedule: Q01DX005 (ip), vehicle: saline) 163 % of control.

Take `COC1C(CO)OC(n2c3c(Cl)cccc3c3c4c(c5c6cccc(Cl)c6[nH]c5c32)C(=O)NC4=O)C(O)C1O` (stereo unspecified): the T/C reads like this: under setting [1], 150 % of control; (dose: 100.0 mg/kg/injection, schedule: Q01DX009 (ip), vehicle: distilled water + Tween-80) 172 % of control and 173 % of control; (dose: 200.0 mg/kg/injection, schedule: Q01DX009 (ip), vehicle: distilled water + Tween-80) 161 % of control.

Take `Cc1cc(NCCCCCCCCNc2cc(C)nc3cc(N(C)C)ccc23)c2ccc(N(C)C)cc2n1`: the T/C reads like this: (dose: 3.12 mg/kg/injection, schedule: Q01DX009 (ip), vehicle: distilled water + Tween-80) 105 % of control; (dose: 6.25 mg/kg/injection, schedule: Q01DX009 (ip), vehicle: distilled water + Tween-80) 115 % of control; under setting [1], 121 % of control.

Consider `CCCCCC(O)C1C(=O)OC(C)C(O)/C=C/C=C/C=C/C=C/C=C(\C)C(O)C(O)C(O)CC(O)CC(O)CC(O)CC(O)CC1O` (stereo unspecified), for which the T/C is, setting by setting: (dose: 0.5 mg/kg/injection, schedule: Q01DX009 (ip), vehicle: other) 98 % of control; (dose: 1.0 mg/kg/injection, schedule: Q01DX009 (ip), vehicle: other) 119 % of control; (dose: 1.56 mg/kg/injection, schedule: Q01DX009 (ip), vehicle: saline) 102 % of control; (dose: 3.12 mg/kg/injection, schedule: Q01DX009 (ip), vehicle: saline) 88 % of control; (dose: 4.0 mg/kg/injection, schedule: Q01DX009 (ip), vehicle: other) 169 % of control; (dose: 8.0 mg/kg/injection, schedule: Q01DX009 (ip), vehicle: other) 166 % of control.

`N[C@@H](Cc1ccc(O)c(O)c1)C(=O)O`: the T/C was 94 % of control (dose: 50.0 mg/kg/injection, schedule: Q01DX009 (ip), vehicle: suspension in saline); 110 % of control (dose: 100.0 mg/kg/injection, schedule: Q01DX009 (ip), vehicle: suspension in saline); 100 % of control (dose: 200.0 mg/kg/injection, schedule: Q01DX009 (ip), vehicle: suspension in saline); 101 % of control and 104 % of control (dose: 400.0 mg/kg/injection, schedule: Q01DX009 (ip), vehicle: suspension in saline); 93 % of control and 105 % of control (dose: 800.0 mg/kg/injection, schedule: Q01DX009 (ip), vehicle: suspension in saline); 97 % of control (dose: 1200.0 mg/kg/injection, schedule: Q01DX009 (ip), vehicle: suspension in saline). Moreover, the T/C (dose: 1600.0 mg/kg/injection, schedule: Q01DX009 (ip), vehicle: suspension in saline) was 100 % of control.

For the compound `CN(C)c1cccc(F)c1C(=O)NC(=O)Nc1ccc(Cl)cc1`, the T/C is, setting by setting: (dose: 37.5 mg/kg/injection, schedule: Q01DX009 (ip), vehicle: saline with Tween-80) 97 % of control; (dose: 75.0 mg/kg/injection, schedule: Q01DX009 (ip), vehicle: saline with Tween-80) 111 % of control; (dose: 150.0 mg/kg/injection, schedule: Q01DX009 (ip), vehicle: saline with Tween-80) 101 % of control.

With `CCC(=O)[O-].CCC(=O)[O-].CCC(=O)[O-].CCC(=O)[O-].O=S(=O)(O)O.[Re].[Re]`, the T/C was 93 % of control (dose: 64.8 mg/kg/injection, schedule: Q01DX009 (ip), vehicle: suspension in saline); 86 % of control (dose: 108.0 mg/kg/injection, schedule: Q01DX009 (ip), vehicle: suspension in saline); 86 % of control (dose: 300.0 mg/kg/injection, schedule: Q01DX009 (ip), vehicle: suspension in saline).

Regarding `COC1CC(C)C(OC)C2=CC(=O)C=C(NC(=O)/C(C)=C/C=C\C(C)C(OC(N)=O)/C(C)=C\C(C)C1OC)C2=O` (stereo unspecified), the T/C was 176 % of control (dose: 2.5 mg/kg/injection, schedule: Q01DX009 (ip), vehicle: saline + alcohol); 155 % of control (dose: 5.0 mg/kg/injection, schedule: Q01DX009 (ip), vehicle: saline + alcohol); 174 % of control (dose: 10.0 mg/kg/injection, schedule: Q01DX009 (ip), vehicle: saline + alcohol).

As for `C/C=C(\C)C(=O)N[C@@H](c1ccccc1)[C@@H](O)C(=O)OC1C[C@@]2(O)[C@@H](OC(=O)c3ccccc3)[C@@H]3[C@]4(OC(C)=O)CO[C@@H]4C[C@H](O)[C@@]3(C)C(=O)[C@H](OC(C)=O)C(=C1C)C2(C)C` (stereo partly specified), the T/C was 113 % of control (dose: 0.5 mg/kg/injection, schedule: Q01DX009 (ip), vehicle: saline + Tween-80 + alcohol); 106 % of control (dose: 1.0 mg/kg/injection, schedule: Q01DX009 (ip), vehicle: saline + Tween-80 + alcohol); 172 % of control (dose: 4.0 mg/kg/injection, schedule: Q01DX009 (ip), vehicle: saline + Tween-80 + alcohol).
